Experimental data taken from ChEMBL document CHEMBL6114984, “Discovery of 2,4-diaminopyrimidine derivatives as potent inhibitors of FAK capable of activating the Hippo pathway for the treatment of esophageal squamous cell carcinoma” (Eur J Med Chem, 2025).

Legend:
[1] = Metabolic stability in rat liver assessed as intrinsic clearance
in vitro [2] = conditions: rat, liver microsomes
Description: Metabolic stability in rat liver microsomes assessed as parent compound remaining measured after 30 min

in vitro [3] = conditions: rat, liver microsomes; remark: listed apart in the source
Description: Metabolic stability in rat liver microsomes assessed as parent compound remaining measured after 5 min

in vitro [4] = conditions: rat, liver microsomes; remark: listed apart in the source
Description: Metabolic stability in rat liver microsomes assessed as parent compound remaining measured after 15 min

in vitro [5] = conditions: rat, liver microsomes; remark: listed apart in the source
Description: Metabolic stability in rat liver microsomes assessed as parent compound remaining measured after 60 min

KYSE-150 cell line = assay: Antiproliferative activity against human KYSE-150 cell line assessed as inhibition of cell proliferation incubated for 48 hrs by MTT assay; type: functional, cell-based; conditions: KYSE-150, 48 h
MGC-803 = assay: cells; conditions: Homo sapiens, MGC-803, 48 h
Description: Antiproliferative activity against human MGC-803 cells assessed as inhibition of cell proliferation incubated for 48 hrs by MTT assay

HCT-116 = assay: cells; conditions: Homo sapiens, HCT-116, 48 h
Description: Antiproliferative activity against human HCT-116 cells assessed as inhibition of cell proliferation incubated for 48 hrs by MTT assay

KYSE-450 = assay: cells; conditions: Homo sapiens, KYSE-450, 48 h
Description: Antiproliferative activity against human KYSE-450 cells assessed as inhibition of cell proliferation incubated for 48 hrs by MTT assay

KYSE-30 = assay: cells; conditions: Homo sapiens, KYSE-30, 48 h
Description: Antiproliferative activity against human KYSE-30 cells assessed as inhibition of cell proliferation incubated for 48 hrs by MTT assay

ECa-109 cell line = assay: cells; conditions: Homo sapiens, ECa-109, 48 h
Description: Antiproliferative activity against human EC109 cells assessed as inhibition of cell proliferation incubated for 48 hrs by MTT assay

NCI-N87 = assay: cells; conditions: Homo sapiens, NCI-N87, 48 h
Description: Antiproliferative activity against human NCI-N87 cells assessed as inhibition of cell proliferation incubated for 48 hrs by MTT assay

NCI-H1975 = assay: cells; conditions: Homo sapiens, NCI-H1975, 48 h
Description: Antiproliferative activity against human NCI-H1975 cells assessed as inhibition of cell proliferation incubated for 48 hrs by MTT assay

MDA-MB-231 = assay: cells; conditions: Homo sapiens, MDA-MB-231, 48 h
Description: Antiproliferative activity against human MDA-MB-231 cells assessed as inhibition of cell proliferation incubated for 48 hrs by MTT assay

DU-145 = assay: cells; conditions: Homo sapiens, DU-145, 48 h
Description: Antiproliferative activity against human DU-145 cells assessed as inhibition of cell proliferation incubated for 48 hrs by MTT assay

Huh-7 = assay: cells; conditions: Homo sapiens, Huh-7, 48 h
Description: Antiproliferative activity against human Huh-7 cells assessed as inhibition of cell proliferation incubated for 48 hrs by MTT assay

SMILES: O=C(O)Cc1ccccc1Nc1c(Cl)cccc1Cl [DICLOFENAC]
- CLint scaled [1]: 127 mL/min/kg
- remaining at 0.5 h (in vitro [2]): 33.8%
- remaining at 5 min (in vitro [3]): 77.9%
- remaining at 0.25 h (in vitro [4]): 55.7%
- remaining at 1 h (in vitro [5]): 11.5%

SMILES: CNC(=O)c1ccccc1Nc1nc(Nc2ccc(N3CCOCC3)cc2OC)ncc1Cl
- IC50 (KYSE-150 cell line): 1820 nM
- IC50 (MGC-803): 1280 nM
- IC50 (HCT-116): 1520 nM
- IC50 (KYSE-450): 3440 nM
- IC50 (KYSE-30): 1030 nM
- IC50 (ECa-109 cell line): 3270 nM
- IC50 (NCI-N87): 2120 nM
- IC50 (NCI-H1975): 1820 nM
- IC50 (MDA-MB-231): 2120 nM
- IC50 (DU-145): 720 nM
- IC50 (Huh-7): 510 nM
